According to US10870638B2, “Pyridazinone compound or its salt, and herbicide containing it” (ISHIHARA SANGYO KAISHA, LTD., priority 2016, dated 2020):

Columns and labels:
Type in all cases: in vivo
Settings in all cases: 14th day after application
[1] = test system: wild oat (Avena fatua L.); assay: Test Example 1: foliar treatment, growth inhibition rate on 14th day
In short: (§1)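 Compounds applied once to leaves of pot-grown plants; wild oat at 0.4–1.2 leaf, foxtail 0.5–3.2, rice 0.2–2.7, soybean primary leaf. Inhibition estimated by eye on day 14.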

[2] = test system: crabgrass (Digitaria sanquinalis L.); assay: as above
In short: (§2)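 Using a small sprayer, formulated compound in water (0.1 vol % surfactant, 1,000 L/ha) was applied to seedlings grown from seed in upland soil. Fourteen days on, growth state was observed and expressed as percent inhibition from 0 to 100.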

corn (Zea mays L.) [3] = assay: as above
In short: as §2

[4] = test system: green foxtail (Setaria viridis L.); assay: as above
In short: as §1

[5] = test system: redroot pigweed (Amaranthus retroflexus L.); assay: as above
In short: as §2

[6] = test system: wheat (Triticum aestivum L.); assay: as above
In short: as §2

rice (Oryza sativa L.) [7] = assay: as above
In short: as §1

[8] = test system: italian ryegrass (Lolium multiflorum Lam.); assay: as above
In short: as §2

[9] = test system: soybean (Glycine max Merr.); assay: as above
In short: as §1

[10] = test system: barnyardgrass (Echinochloa crus-qalli L.); assay: as above
In short: as §2

[11] = test system: prickly sida (Sida spinosa L.); assay: Test Example 2: soil application on the day after sowing, growth inhibition rate on 14th day
In short: (§3)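 Read-out is visual percent growth inhibition 14 days post-application, scaled from 0 (as non-treated) to 100 (complete kill). Treatment: soil application by small sprayer the day after sowing, compound formulations diluted in water equivalent to 1,000 L/ha.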

corn (Zea mays L.) [12] = assay: as above
In short: as §3

[13] = test system: green foxtail (Setaria viridis L.); assay: as above
In short: as §3

[14] = test system: crabgrass (Digitaris sanquinalis L.); assay: as above
In short: as §3

[15] = test system: redroot pigweed (Amaranthus retroflexus L.); assay: as above
In short: as §3

[16] = test system: velvetleaf (Abutilon theophrasti MEDIC.); assay: as above
In short: as §3

[17] = test system: wheat (Triticum aestivum L.); assay: as above
In short: as §3

rice (Oryza sativa L.) [18] = assay: as above
In short: as §3

[19] = test system: soybean (Glycine max Merr.); assay: as above
In short: as §3

[20] = test system: barnyardgrass (Echinochloa crus-qalli L.); assay: as above
In short: as §3

[21] = active ingredient amount 31 g/ha
[22] = active ingredient amount 500 g/ha
[23] = active ingredient amount 31 g/ha, visual, 0 = non-treated, 100 = complete kill

Structure (SMILES)	Growth inhibition rate (%) Wild oat [1, 21] [%]	Growth inhibition rate (%) Crabgrass [2, 21] [%]	Growth inhibition rate (%) Corn (corn (Zea mays L.) [3]; [21]) [%]	Growth inhibition rate (%) Green foxtail [4, 21] [%]	Growth inhibition rate (%) Redroot pigweed [5, 21] [%]	Growth inhibition rate (%) Wheat [6, 21] [%]	Growth inhibition rate (%) Rice (rice (Oryza sativa L.) [7]; [21]) [%]	Growth inhibition rate (%) Italian ryegrass [8, 21] [%]	Growth inhibition rate (%) Soybean [9, 21] [%]	Growth inhibition rate (%) Barnyardgrass [10, 21] [%]	Growth inhibition rate (%) Prickly sida [11, 21] [%]	Growth inhibition rate (%) Corn (corn (Zea mays L.) [12]; [21]) [%]	Growth inhibition rate (%) Green foxtail [13, 21] [%]	Growth inhibition rate (%) Crabgrass [14, 21] [%]	Growth inhibition rate (%) Redroot pigweed [15, 21] [%]	Growth inhibition rate (%) Velvetleaf [16, 21] [%]	Growth inhibition rate (%) Wheat [17, 21] [%]	Growth inhibition rate (%) Rice (rice (Oryza sativa L.) [18]; [21]) [%]	Growth inhibition rate (%) Soybean [19, 21] [%]	Growth inhibition rate (%) Barnyardgrass [20, 21] [%]	further results
Cc1ccc(Oc2ncc(C(F)(F)F)cc2Cl)cc1-c1c(O)c(C)nn(C)c1=O [1-1]	98	95	90	99	10	65	80	98	0	100	0	50	100	100	0	0	0	20	0	85	
Cc1cc(C)c(-c2c(O)c(C)nn(C)c2=O)cc1Oc1ncc(C(F)(F)F)cc1Cl [1-14]	95	93	70	98	0	0	80	85	0	98	0	0	93	83	0	0	0	0	0	99	
CCn1ncc(OC(C)=O)c(-c2cc(Oc3nc4ccc(Cl)cc4o3)ccc2C)c1=O [Compound 2-169]	88	100	98	100	0	85	83	85	40	100	0	0	98	98	0	0	0	0	0	70	
Cc1ccc(Oc2cnc3ccccc3c2)cc1-c1c(O)c(C)nn(C)c1=O [Compound 2-112]																					Growth inhibition rate (%) Wild oat [1, 22]: 90%; Growth inhibition rate (%) Crabgrass [2, 22]: 98%; Growth inhibition rate (%) Corn (corn (Zea mays L.) [3]; [22]): 93%; Growth inhibition rate (%) Green foxtail [4, 22]: 100%; Growth inhibition rate (%) Redroot pigweed [5, 22]: 20%; Growth inhibition rate (%) Wheat [6, 22]: 80%; Growth inhibition rate (%) Rice (rice (Oryza sativa L.) [7]; [22]): 93%; Growth inhibition rate (%) Italian ryegrass [8, 22]: 90%; Growth inhibition rate (%) Soybean [9, 22]: 0%; Growth inhibition rate (%) Barnyardgrass [10, 22]: 99%; Growth inhibition rate (%) Prickly sida [11, 22]: 0%; Growth inhibition rate (%) Corn (corn (Zea mays L.) [12]; [22]): 0%; Growth inhibition rate (%) Green foxtail [13, 22]: 100%; Growth inhibition rate (%) Crabgrass [14, 22]: 100%; Growth inhibition rate (%) Redroot pigweed [15, 22]: 0%; Growth inhibition rate (%) Velvetleaf [16, 22]: 0%; Growth inhibition rate (%) Wheat [17, 22]: 20%; Growth inhibition rate (%) Rice (rice (Oryza sativa L.) [18]; [22]): 70%; Growth inhibition rate (%) Soybean [19, 22]: 0%; Growth inhibition rate (%) Barnyardgrass [20, 22]: 100%
CC(=O)Oc1c(C)nn(C)c(=O)c1-c1cc(Oc2ncc(Br)cc2Cl)ccc1C [Compound 2-135]	90	90	93	95	0	88	80	95	0	93	0	0	90	75	0	0	0	0	10	90	
CCc1ccc(Oc2nc3ccc(Cl)cc3o2)cc1-c1c(OC(C)=O)c(C)nn(C)c1=O [Compound 2-159]	100	100	100	100	0	99	100	100	35	100	0	0	99	98	0	0	0	0	0	100	
Cc1ccc(Oc2nc3ccc(Cl)cc3s2)cc1-c1c(O)c(C)nn(C)c1=O [Compound 2-10]	10	40	0	99	0	10	0	10	30	99	0	30	85	50	0	0	0	40	0	95	
Cc1ccc(Oc2cnc3cc(Cl)ccc3n2)cc1-c1c(OC(=O)COc2ccccc2)c(C)nn(C)c1=O [Compound 3-48]											0	0	100	60	0	0	20	0	0	98	Growth inhibition rate (%) Wild oat [1, 23]: 75%; Growth inhibition rate (%) Crabgrass [2, 23]: 98%; Growth inhibition rate (%) Corn (corn (Zea mays L.) [3]; [23]): 25%; Growth inhibition rate (%) Green foxtail [4, 23]: 100%; Growth inhibition rate (%) Redroot pigweed [5, 23]: 0%; Growth inhibition rate (%) Wheat [6, 23]: 90%; Growth inhibition rate (%) Rice (rice (Oryza sativa L.) [7]; [23]): 0%; Growth inhibition rate (%) Italian ryegrass [8, 23]: 95%; Growth inhibition rate (%) Soybean [9, 23]: 10%; Growth inhibition rate (%) Barnyardgrass [10, 23]: 100%
CC(=O)Oc1cnn(C)c(=O)c1-c1cc(Oc2ncc(C(F)(F)F)cc2Cl)ccc1C [1-171]	100	100	100	100	0	83	85	100	0	100	0	0	100	100	0	0	0	0	0	100	
